Assays:
Format in all cases: in vivo
[1] = tested on: upland rice (Oryza sp., var. Tebonnet, RICE); experiment: Post-emerge test, crop safety; conditions: post-emerge, 14 days after application, rating scale 0-100
How it was run: (§1)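 Fourteen days after spraying, crop and weed injury was graded visually from 0, no effect, to 100, every plant dead. Test substances were dissolved in acetone and applied at 15–1000 g ai/ha with a flat-fan nozzle. Application was either pre-emergence, one day after sowing, or post-emergence at the 2–3 leaf stage.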

[2] = tested on: field corn (Zea mays L., var. Dekalb 535, CORN); experiment: Post-emerge test, crop safety; conditions: post-emerge, 14 days after application, rating scale 0-100
How it was run: as §1

[3] = tested on: velvetleaf (Abutilon theophrasti, ABUTH); experiment: Pre-emerge test, greenhouse herbicide activity screening; conditions: for phytotoxicity rating ABUTH: pre-emerge, 14 days after application, scale 0-100; for Pre-emerge Herbicidal Activity ABUTH: phytotoxicity rating 0-100, 14 days after application
How it was run: as §1

[4] = tested on: johnsongrass (Sorghum halepense, SORHA); experiment: as above; conditions: for phytotoxicity rating SORHA: pre-emerge, 14 days after application, scale 0-100; for Pre-emerge Herbicidal Activity SORHA: phytotoxicity rating 0-100, 14 days after application
How it was run: as §1

[5] = tested on: green foxtail (Setaria viridis, SETVI); experiment: as above; conditions: for phytotoxicity rating SETVI: pre-emerge, 14 days after application, scale 0-100; for Pre-emerge Herbicidal Activity SETVI: phytotoxicity rating 0-100, 14 days after application
How it was run: as §1

[6] = tested on: barnyardgrass (Echinochloa crus-galli, ECHCG); experiment: as above; conditions: for phytotoxicity rating ECHCG: pre-emerge, 14 days after application, scale 0-100; for Pre-emerge Herbicidal Activity ECHCG: phytotoxicity rating 0-100, 14 days after application
How it was run: as §1

[7] = tested on: ivyleaf morningglory (Ipomoea hederacea, IPOHE); experiment: as above; conditions: for phytotoxicity rating IPOHE: pre-emerge, 14 days after application, scale 0-100; for Pre-emerge Herbicidal Activity IPOHE: phytotoxicity rating 0-100, 14 days after application
How it was run: as §1

[8] = tested on: sicklepod (Cassia obtusifolia, CASOB); experiment: as above; conditions: for phytotoxicity rating CASOB: pre-emerge, 14 days after application, scale 0-100; for Pre-emerge Herbicidal Activity CASOB: phytotoxicity rating 0-100, 14 days after application
How it was run: as §1

[9] = tested on: lambsquarters (Chenopodium album, CHEAL); experiment: as above; conditions: for phytotoxicity rating CHEAL: pre-emerge, 14 days after application, scale 0-100; for Pre-emerge Herbicidal Activity CHEAL: phytotoxicity rating 0-100, 14 days after application
How it was run: as §1

[10] = tested on: large crabgrass (Digitaria sanguinalis, DIGSA); experiment: as above; conditions: for phytotoxicity rating DIGSA: pre-emerge, 14 days after application, scale 0-100; for Pre-emerge Herbicidal Activity DIGSA: phytotoxicity rating 0-100, 14 days after application
How it was run: as §1

[11] = tested on: upland rice (Oryza sp., var. Tebonnet, RICE); experiment: Pre-emerge test, crop safety; conditions: for phytotoxicity rating RICE (crop damage): pre-emerge, 14 days after application, scale 0-100; for Pre-emerge Herbicidal Activity RICE: crop damage rating 0-100, 14 days after application
How it was run: (§2)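 Applied at 15–1000 g ai/ha from acetone in 187 l/ha spray volume. Post-emergence applications included 0.25% v/v non-ionic surfactant and reached plants sown 8–21 days before. Pre-emergence applications were incorporated by surface watering. Efficacy or crop damage was rated on a 0–100 scale after 14 days.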

[12] = tested on: field corn (Zea mays L., var. Dekalb 535, CORN); experiment: Pre-emerge test, crop safety; conditions: for phytotoxicity rating CORN (crop damage): pre-emerge, 14 days after application, scale 0-100; for Pre-emerge Herbicidal Activity CORN: crop damage rating 0-100, 14 days after application
How it was run: as §2

[13] = tested on: redroot pigweed (Amaranthus retroflexus, AMARE); experiment: Pre-emerge test, greenhouse herbicide activity screening; conditions: for phytotoxicity rating AMARE: pre-emerge, 14 days after application, scale 0-100; for Pre-emerge Herbicidal Activity AMARE: phytotoxicity rating 0-100, 14 days after application
How it was run: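 Compounds in acetone were track-sprayed at 15-1000 g ai/ha (187 l/ha) on sandy loam pots: pre-emerge one day after seeding, post-emerge at 2-3 leaf stage with 0.25% v/v non-ionic surfactant. Phytotoxicity was rated 14 days later on a 0 (no damage) to 100 (complete death) scale.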

[14] = tested on: velvetleaf (Abutilon theophrasti, ABUTH); experiment: Post-emerge test, greenhouse herbicide activity screening; conditions: post-emerge, 14 days after application, rating scale 0-100
How it was run: as §1

[15] = tested on: johnsongrass (Sorghum halepense, SORHA); experiment: as above; conditions: post-emerge, 14 days after application, rating scale 0-100
How it was run: as §1

[16] = tested on: green foxtail (Setaria viridis, SETVI); experiment: as above; conditions: post-emerge, 14 days after application, rating scale 0-100
How it was run: as §1

[17] = tested on: barnyardgrass (Echinochloa crus-galli, ECHCG); experiment: as above; conditions: post-emerge, 14 days after application, rating scale 0-100
How it was run: as §1

[18] = tested on: ivyleaf morningglory (Ipomoea hederacea, IPOHE); experiment: as above; conditions: post-emerge, 14 days after application, rating scale 0-100
How it was run: as §1

[19] = tested on: sicklepod (Cassia obtusifolia, CASOB); experiment: as above; conditions: post-emerge, 14 days after application, rating scale 0-100
How it was run: as §1

[20] = tested on: lambsquarters (Chenopodium album, CHEAL); experiment: as above; conditions: post-emerge, 14 days after application, rating scale 0-100
How it was run: as §1

[21] = tested on: redroot pigweed (Amaranthus retroflexus, AMARE); experiment: as above; conditions: post-emerge, 14 days after application
How it was run: as §1

[22] = tested on: large crabgrass (Digitaria sanguinalis, DIGSA); experiment: as above; conditions: post-emerge, 14 days after application, rating scale 0-100
How it was run: as §1

[23] = 250 g ai/ha, rating scale 0-100

**Q.** What does the source list for COc1c(C#N)cc(F)c(-n2c(=O)cc(C(F)(F)F)n(C)c2=O)c1NC(=O)C=Cc1ccccc1 [2-179]?
**A.** RICE phytotoxicity rating (crop damage) ([1]; 63 g ai/ha): 30; RICE phytotoxicity rating (crop damage) ([1]; 250 g ai/ha): 60; CORN phytotoxicity rating (crop damage) ([2]; 63 g ai/ha): 15; CORN phytotoxicity rating (crop damage) ([2]; 250 g ai/ha): 15; phytotoxicity rating ABUTH ([3]; 63 g ai/ha): 100; phytotoxicity rating ABUTH ([3]; 250 g ai/ha): 100; phytotoxicity rating SORHA ([4]; 63 g ai/ha): 30; phytotoxicity rating SORHA ([4]; 250 g ai/ha): 95; phytotoxicity rating SETVI ([5]; 63 g ai/ha): 50; phytotoxicity rating SETVI ([5]; 250 g ai/ha): 90; phytotoxicity rating ECHCG ([6]; 63 g ai/ha): 20; phytotoxicity rating ECHCG ([6]; 250 g ai/ha): 85; phytotoxicity rating IPOHE ([7]; 63 g ai/ha): 60; phytotoxicity rating IPOHE ([7]; 250 g ai/ha): 70; phytotoxicity rating CASOB ([8]; 63 g ai/ha): 30; phytotoxicity rating CASOB ([8]; 250 g ai/ha): 100; phytotoxicity rating CHEAL ([9]; 63 g ai/ha): 100; phytotoxicity rating CHEAL ([9]; 250 g ai/ha): 100; phytotoxicity rating DIGSA ([10]; 63 g ai/ha): 20; phytotoxicity rating DIGSA ([10]; 250 g ai/ha): 95; phytotoxicity rating RICE (crop damage) ([11]; 63 g ai/ha): 20; phytotoxicity rating RICE (crop damage) ([11]; 250 g ai/ha): 60; phytotoxicity rating CORN (crop damage) ([12]; 63 g ai/ha): 0; phytotoxicity rating CORN (crop damage) ([12]; 250 g ai/ha): 10; phytotoxicity rating AMARE ([13]; 63 g ai/ha): 100; phytotoxicity rating AMARE ([13]; 250 g ai/ha): 100; ABUTH phytotoxicity rating ([14]; 63 g ai/ha): 100; ABUTH phytotoxicity rating ([14]; 250 g ai/ha): 100; SORHA phytotoxicity rating ([15]; 63 g ai/ha): 10; SETVI phytotoxicity rating ([16]; 63 g ai/ha): 30; SETVI phytotoxicity rating ([16]; 250 g ai/ha): 55; ECHCG phytotoxicity rating ([17]; 63 g ai/ha): 70; ECHCG phytotoxicity rating ([17]; 250 g ai/ha): 50; IPOHE phytotoxicity rating ([18]; 63 g ai/ha): 80; IPOHE phytotoxicity rating ([18]; 250 g ai/ha): 100; CASOB phytotoxicity rating ([19]; 63 g ai/ha): 80; CASOB phytotoxicity rating ([19]; 250 g ai/ha): 100; CHEAL phytotoxicity rating ([20]; 63 g ai/ha): 80; CHEAL phytotoxicity rating ([20]; 250 g ai/ha): 100; AMARE phytotoxicity rating ([21]; 63 g ai/ha, rating scale 0-100): 100; AMARE phytotoxicity rating [21, 23]: 100; DIGSA phytotoxicity rating ([22]; 63 g ai/ha): 0; DIGSA phytotoxicity rating ([22]; 250 g ai/ha): 50

**Q.** What does the source list for COc1c(Cl)cc(F)c(-n2c(=O)cc(C(F)(F)F)n(C)c2=O)c1NC(=O)OCc1c(F)cccc1F [4-29]?
**A.** phytotoxicity rating RICE (crop damage) ([1]; 63 g ai/ha): 60; phytotoxicity rating RICE (crop damage) ([1]; 250 g ai/ha): 85; phytotoxicity rating CORN (crop damage) ([2]; 63 g ai/ha): 80; phytotoxicity rating CORN (crop damage) ([2]; 250 g ai/ha): 100; Pre-emerge Herbicidal Activity ABUTH ([3]; 63 g ai/ha): 100; Pre-emerge Herbicidal Activity ABUTH ([3]; 250 g ai/ha): 100; Pre-emerge Herbicidal Activity SORHA ([4]; 63 g ai/ha): 70; Pre-emerge Herbicidal Activity SORHA ([4]; 250 g ai/ha): 90; Pre-emerge Herbicidal Activity SETVI ([5]; 63 g ai/ha): 100; Pre-emerge Herbicidal Activity SETVI ([5]; 250 g ai/ha): 100; Pre-emerge Herbicidal Activity ECHCG ([6]; 63 g ai/ha): 70; Pre-emerge Herbicidal Activity ECHCG ([6]; 250 g ai/ha): 90; Pre-emerge Herbicidal Activity IPOHE ([7]; 63 g ai/ha): 70; Pre-emerge Herbicidal Activity IPOHE ([7]; 250 g ai/ha): 90; Pre-emerge Herbicidal Activity CASOB ([8]; 63 g ai/ha): 40; Pre-emerge Herbicidal Activity CASOB ([8]; 250 g ai/ha): 80; Pre-emerge Herbicidal Activity CHEAL ([9]; 63 g ai/ha): 100; Pre-emerge Herbicidal Activity CHEAL ([9]; 250 g ai/ha): 100; Pre-emerge Herbicidal Activity DIGSA ([10]; 63 g ai/ha): 100; Pre-emerge Herbicidal Activity DIGSA ([10]; 250 g ai/ha): 100; Pre-emerge Herbicidal Activity RICE ([11]; 63 g ai/ha): 50; Pre-emerge Herbicidal Activity RICE ([11]; 250 g ai/ha): 85; Pre-emerge Herbicidal Activity CORN ([12]; 63 g ai/ha): 80; Pre-emerge Herbicidal Activity CORN ([12]; 250 g ai/ha): 95; Pre-emerge Herbicidal Activity AMARE ([13]; 63 g ai/ha): 100; Pre-emerge Herbicidal Activity AMARE ([13]; 250 g ai/ha): 100; phytotoxicity rating ABUTH ([14]; 63 g ai/ha): 100; phytotoxicity rating ABUTH ([14]; 250 g ai/ha): 100; phytotoxicity rating SORHA ([15]; 63 g ai/ha): 60; phytotoxicity rating SORHA ([15]; 250 g ai/ha): 100; phytotoxicity rating SETVI ([16]; 63 g ai/ha): 80; phytotoxicity rating SETVI ([16]; 250 g ai/ha): 99; phytotoxicity rating ECHCG ([17]; 63 g ai/ha): 70; phytotoxicity rating ECHCG ([17]; 250 g ai/ha): 90; phytotoxicity rating IPOHE ([18]; 63 g ai/ha): 100; phytotoxicity rating IPOHE ([18]; 250 g ai/ha): 100; phytotoxicity rating CASOB ([19]; 63 g ai/ha): 90; phytotoxicity rating CASOB ([19]; 250 g ai/ha): 100; phytotoxicity rating CHEAL ([20]; 63 g ai/ha): 90; phytotoxicity rating CHEAL ([20]; 250 g ai/ha): 100; phytotoxicity rating AMARE ([21]; 63 g ai/ha, rating scale 0-100 (0 no damage, 100 complete death)): 100; phytotoxicity rating AMARE [21, 23]: 100; phytotoxicity rating DIGSA ([22]; 63 g ai/ha): 50; phytotoxicity rating DIGSA ([22]; 250 g ai/ha): 90
